The values that follow come from paper PMC10582335 (Frontiers in Pharmacology, 2023).

Structures are written as SMILES. Like-named read-outs stand apart in the source and are kept apart here.

Series [1] in a line: Stability in rat plasma under storage and processing conditions (QC samples, UPLC-MS/MS). The note with it: n = 6.
Procedure: The stability of plasma samples was validated by the QC samples at three concentration levels in six replicates under various storage and processing conditions: autosampler for 24 h after preprocessing, room temperature for 8 h, −80°C for 30 days, and three freeze-thaw cycles (−80°C to room temperature). The samples were verified to be stable if the deviation of the samples was not more than ±15% of the standard concentration.
The conditions of series [2]: cited from earlier work; for time of the maximal blood concentration after oral intake: (±1 h), each of two drugs, ref Steffel et al., 2021; for time to reach maximum plasma concentrations: after oral administration, 2005b, Raghavan et al., 2009; for time to reach maximum plasma concentrations / terminal half-life: ref Kubitza et al., 2005a, Kubitza et al.; for terminal half-life: 2008.

Where [3] appears, read: Freeze-thaw stability for three times, high QC (nominal 150 almonertinib, 800 apixaban, 1,500 rivaroxaban ng/mL).
Setting [4] is: Freeze-thaw stability for three times, low QC (nominal 1 almonertinib, 2 apixaban, 10 rivaroxaban ng/mL).
Where [5] appears, read: Freeze-thaw stability for three times, medium QC (nominal 80 almonertinib, 400 apixaban, 800 rivaroxaban ng/mL).
[6] abbreviates: Room temperature for 8 h, high QC (nominal 150 almonertinib, 800 apixaban, 1,500 rivaroxaban ng/mL).
Where [7] appears, read: Room temperature for 8 h, low QC (nominal 1 almonertinib, 2 apixaban, 10 rivaroxaban ng/mL).
[8] abbreviates: Room temperature for 8 h, medium QC (nominal 80 almonertinib, 400 apixaban, 800 rivaroxaban ng/mL).
Setting [9] is: −80°C for 30 days, high QC (nominal 150 almonertinib, 800 apixaban, 1,500 rivaroxaban ng/mL).
[10] abbreviates: −80°C for 30 days, low QC (nominal 1 almonertinib, 2 apixaban, 10 rivaroxaban ng/mL).
Where [11] appears, read: −80°C for 30 days, medium QC (nominal 80 almonertinib, 400 apixaban, 800 rivaroxaban ng/mL).

Regarding `COc1ccc(-n2nc(C(N)=O)c3c2C(=O)N(c2ccc(N4CCCCC4=O)cc2)CC3)cc1` [apixaban, Apixaban], the “Stability: Accuracy (RE%)” value is listed as 0.04% in series [1] (setting [3]); −3.42% in series [1] (setting [4]); 2.67% in series [1] (setting [5]); 0.60% in series [1] (setting [6]); 3.83% in series [1] (setting [7]); 6.08% in series [1] (setting [8]). The “Stability: Accuracy (RE%)” value in series [1] (setting [9]) is given as −2.15%; in series [1] (setting [10]), 0.83%; in series [1] (setting [11]), 0.13%. The “Stability: measured concentration, Mean ± SD” value (“Stability … Mean ± SD” for short) came to 800.33 ± 24.72 ng/mL in series [1] (setting [3]); 1.93 ± 0.13 ng/mL in series [1] (setting [4]); 410.67 ± 12.03 ng/mL in series [1] (setting [5]); 804.83 ± 20.23 ng/mL in series [1] (setting [6]); 2.08 ± 0.07 ng/mL in series [1] (setting [7]); 424.33 ± 9.35 ng/mL in series [1] (setting [8]). For the same compound, the “Stability … Mean ± SD” value in series [1] (setting [9]) was 782.83 ± 22.19 ng/mL; in series [1] (setting [10]), 2.02 ± 0.08 ng/mL; in series [1] (setting [11]) it was 400.50 ± 19.99 ng/mL. The “time of the maximal blood concentration after oral intake” value in series [2] is 2 to 3 h. Moreover, in series [2], the “time to reach maximum plasma concentrations” value is 2 to 4 h. The “renal excretion as share of the total clearance” value in series [2] (apixaban, ref Byon et al., 2019) was “approximately 27%”.
Regarding `O=C(NC[C@H]1CN(c2ccc(N3CCOCC3=O)cc2)C(=O)O1)c1ccc(Cl)s1` [rivaroxaban, Rivaroxaban], the “Stability: Accuracy (RE%)” value is given as −5.56% in series [1] (setting [3]); 1.13% in series [1] (setting [4]); −3.21% in series [1] (setting [5]); −1.11% in series [1] (setting [6]); 7.75% in series [1] (setting [7]); 4.19% in series [1] (setting [8]). In addition, the “Stability: Accuracy (RE%)” value in series [1] (setting [9]) is given as −4.33%; in series [1] (setting [10]) it was 6.83%; in series [1] (setting [11]), −4.38%. Besides, the “Stability … Mean ± SD” value in series [1] (setting [3]) was 1,416.67 ± 48.85 ng/mL; in series [1] (setting [4]), 10.11 ± 0.61 ng/mL; in series [1] (setting [5]), 774.33 ± 23.28 ng/mL; in series [1] (setting [6]), 1,483.33 ± 72.30 ng/mL; in series [1] (setting [7]) it was 10.78 ± 0.59 ng/mL; in series [1] (setting [8]), 833.50 ± 49.92 ng/mL. Also, the “Stability … Mean ± SD” value in series [1] (setting [9]) is reported as 1,435.00 ± 96.07 ng/mL; in series [1] (setting [10]), 10.68 ± 0.22 ng/mL; in series [1] (setting [11]), 765.00 ± 58.14 ng/mL. Further, the “time of the maximal blood concentration after oral intake” value in series [2] was 2 to 3 h. Besides, the “time to reach maximum plasma concentrations” value in series [2] is 2 to 4 h. The terminal half-life in series [2] (elderly subjects) is 11 to 13 h; in series [2] (healthy young subjects), 5 to 9 h.
